Measured values: ChEMBL document CHEMBL1201862, “PubChem BioAssay data set” (2004)
Active and inactive are the calls of the source.

Columns and labels:
[1] = target: T1, RNA-editing ligase 1, mitochondrial (Trypanosoma brucei brucei, UniProt P86926); test: TbREL1 ligase inhibitors, dose response, biochemical, fluorescence, Trypanosoma brucei (AID 1117295); type: functional
T1 sequence (P86926 whole entry): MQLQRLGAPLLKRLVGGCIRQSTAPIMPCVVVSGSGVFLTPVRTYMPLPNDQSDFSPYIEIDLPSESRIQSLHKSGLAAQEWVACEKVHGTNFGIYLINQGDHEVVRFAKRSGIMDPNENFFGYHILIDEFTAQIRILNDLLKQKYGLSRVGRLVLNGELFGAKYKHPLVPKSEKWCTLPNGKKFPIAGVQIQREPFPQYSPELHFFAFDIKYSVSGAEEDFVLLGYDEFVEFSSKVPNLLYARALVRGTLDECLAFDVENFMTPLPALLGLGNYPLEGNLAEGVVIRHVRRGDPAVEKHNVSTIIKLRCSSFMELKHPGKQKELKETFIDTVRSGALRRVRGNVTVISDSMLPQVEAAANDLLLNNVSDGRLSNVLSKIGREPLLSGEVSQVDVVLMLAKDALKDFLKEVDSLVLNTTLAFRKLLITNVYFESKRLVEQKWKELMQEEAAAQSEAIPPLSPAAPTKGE

[2] = target: T2, Alkaline phosphatase, tissue-nonspecific isozyme (Homo sapiens, UniProt P05186); test: human TNAP enzyme inhibitors, SAR follow-up, biochemical, luminescent, dose response (AID 1056)
T2 sequence (P05186 whole entry): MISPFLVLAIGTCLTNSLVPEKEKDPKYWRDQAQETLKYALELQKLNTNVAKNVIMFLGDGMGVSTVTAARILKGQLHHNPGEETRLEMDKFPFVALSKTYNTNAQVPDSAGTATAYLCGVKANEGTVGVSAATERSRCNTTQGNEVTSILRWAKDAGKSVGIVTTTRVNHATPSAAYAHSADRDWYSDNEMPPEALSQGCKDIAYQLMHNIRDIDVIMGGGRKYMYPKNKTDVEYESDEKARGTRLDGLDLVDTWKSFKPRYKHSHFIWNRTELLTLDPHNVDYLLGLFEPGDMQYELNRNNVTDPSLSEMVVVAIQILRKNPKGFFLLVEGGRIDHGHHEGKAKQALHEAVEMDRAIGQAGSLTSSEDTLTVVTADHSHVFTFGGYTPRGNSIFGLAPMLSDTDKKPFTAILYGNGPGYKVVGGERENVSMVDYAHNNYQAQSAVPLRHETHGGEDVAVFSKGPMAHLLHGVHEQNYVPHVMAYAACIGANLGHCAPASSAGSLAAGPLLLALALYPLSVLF

Albumin = Albumin (Bos taurus, UniProt P02769); test: Counterscreen for inhibitors of T-cell receptor (TCR)-CD3 interaction: Fluorescence-based biochemical high throughput dose response assay to identify inhibitors of T-cell receptor (TCR)-CD3 interaction using a TAMRA-labeled BSA probe.; type: functional
Chain of Albumin (P02769 whole entry): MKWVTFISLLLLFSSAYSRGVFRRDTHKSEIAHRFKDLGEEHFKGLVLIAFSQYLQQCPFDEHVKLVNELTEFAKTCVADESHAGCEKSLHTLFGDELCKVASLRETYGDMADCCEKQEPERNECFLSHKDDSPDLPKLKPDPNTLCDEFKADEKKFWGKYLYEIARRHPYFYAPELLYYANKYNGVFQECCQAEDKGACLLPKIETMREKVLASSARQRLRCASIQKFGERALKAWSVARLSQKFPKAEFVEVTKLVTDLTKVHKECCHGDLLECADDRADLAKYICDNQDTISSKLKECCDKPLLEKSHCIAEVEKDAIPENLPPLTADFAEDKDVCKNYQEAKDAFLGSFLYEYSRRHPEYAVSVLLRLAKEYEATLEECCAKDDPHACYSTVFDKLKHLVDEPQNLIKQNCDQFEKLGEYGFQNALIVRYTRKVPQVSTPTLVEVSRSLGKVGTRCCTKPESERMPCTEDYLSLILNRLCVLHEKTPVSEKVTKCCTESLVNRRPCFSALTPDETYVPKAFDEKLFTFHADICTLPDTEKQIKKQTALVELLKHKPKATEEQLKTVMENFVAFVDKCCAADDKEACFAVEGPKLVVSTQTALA

[3] = target: T3, Trace amine-associated receptor 1 (Homo sapiens, UniProt Q96RJ0); test: Counterscreen for antagonists of the human trace amine associated receptor 1 (hTAAR1): Fluorescence-based cell-based high throughput dose response assay to identify TAAR1 Agonists.; type: functional
T3 sequence (Q96RJ0 whole entry): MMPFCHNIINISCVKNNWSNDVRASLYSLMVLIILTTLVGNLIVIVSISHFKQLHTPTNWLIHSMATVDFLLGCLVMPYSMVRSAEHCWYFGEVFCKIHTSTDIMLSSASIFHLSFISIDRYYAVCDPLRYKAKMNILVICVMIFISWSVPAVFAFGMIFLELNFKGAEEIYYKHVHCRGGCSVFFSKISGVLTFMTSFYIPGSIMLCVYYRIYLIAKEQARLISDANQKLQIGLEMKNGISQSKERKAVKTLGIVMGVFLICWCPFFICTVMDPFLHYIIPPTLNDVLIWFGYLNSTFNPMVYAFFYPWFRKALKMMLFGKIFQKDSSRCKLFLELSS

[4] = Counterscreen for antagonists of the human trace amine associated receptor 1 (hTAAR1): Fluorescence-based cell-based high throughput dose response assay to identify nonselective Ga16 antagonists.; type: functional
[5] = Counterscreen for […] of the human trace amine associated receptor 1 (TAAR1): Fluorescence-based cell-based high throughput dose response assay to identify nonselective Ga16 agonists.; type: functional
[6] = target: T3, Trace amine-associated receptor 1; test: Fluorescence-based cell-based high throughput dose response assay to identify antagonists of the human trace amine associated receptor 1 (TAAR1).; type: functional
[7] = miR-122 activators in hepatoma reporter cells, dose response, cell-based, Huh7 psiCHECK-miR122, Renilla luciferase, cherry-picked (AID 651956); type: functional;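 note: huh7 hepatoma cells stably carrying a psiCHECK-2 miR-122 sensor plasmid; renilla luciferase signal reporting endogenous miR-122 activity after 48 h compound exposure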
[8] = AlphaScreen signal interference compounds, dose response, artefact control for ARNT-TACC3 interaction inhibitor project, biochemical, luminescence, cherry-pick (AID 651705); type: functional;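 note: AlphaScreen bead proximity signal that flags compounds interfering with the detection technology; potency reflects signal decrease which marks the compound as an assay artifact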
[9] = target: T4, DNA repair protein RAD52 homolog (Homo sapiens, UniProt P43351); type: functional, biochemical
T4 sequence (P43351 whole entry): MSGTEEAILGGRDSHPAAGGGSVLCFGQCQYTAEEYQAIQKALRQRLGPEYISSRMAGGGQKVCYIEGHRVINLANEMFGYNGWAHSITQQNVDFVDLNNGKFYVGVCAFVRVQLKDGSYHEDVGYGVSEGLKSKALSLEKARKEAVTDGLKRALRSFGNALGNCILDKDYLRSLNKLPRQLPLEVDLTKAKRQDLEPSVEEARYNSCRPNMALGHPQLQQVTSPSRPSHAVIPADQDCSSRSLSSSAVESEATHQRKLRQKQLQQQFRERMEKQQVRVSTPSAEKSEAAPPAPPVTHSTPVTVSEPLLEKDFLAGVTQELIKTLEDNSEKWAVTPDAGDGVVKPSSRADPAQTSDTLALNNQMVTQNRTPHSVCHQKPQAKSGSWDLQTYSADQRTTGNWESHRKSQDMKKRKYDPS

[10] = target: DNA repair and recombination protein RAD54-like (Homo sapiens, UniProt Q92698); test: inhibitors of human RAD54 branch migration, confirmation, biochemical, fluorescence, cherry-picked samples, dose series (AID 651657); type: functional
Chain of DNA repair and recombination protein RAD54-like (Q92698 whole entry): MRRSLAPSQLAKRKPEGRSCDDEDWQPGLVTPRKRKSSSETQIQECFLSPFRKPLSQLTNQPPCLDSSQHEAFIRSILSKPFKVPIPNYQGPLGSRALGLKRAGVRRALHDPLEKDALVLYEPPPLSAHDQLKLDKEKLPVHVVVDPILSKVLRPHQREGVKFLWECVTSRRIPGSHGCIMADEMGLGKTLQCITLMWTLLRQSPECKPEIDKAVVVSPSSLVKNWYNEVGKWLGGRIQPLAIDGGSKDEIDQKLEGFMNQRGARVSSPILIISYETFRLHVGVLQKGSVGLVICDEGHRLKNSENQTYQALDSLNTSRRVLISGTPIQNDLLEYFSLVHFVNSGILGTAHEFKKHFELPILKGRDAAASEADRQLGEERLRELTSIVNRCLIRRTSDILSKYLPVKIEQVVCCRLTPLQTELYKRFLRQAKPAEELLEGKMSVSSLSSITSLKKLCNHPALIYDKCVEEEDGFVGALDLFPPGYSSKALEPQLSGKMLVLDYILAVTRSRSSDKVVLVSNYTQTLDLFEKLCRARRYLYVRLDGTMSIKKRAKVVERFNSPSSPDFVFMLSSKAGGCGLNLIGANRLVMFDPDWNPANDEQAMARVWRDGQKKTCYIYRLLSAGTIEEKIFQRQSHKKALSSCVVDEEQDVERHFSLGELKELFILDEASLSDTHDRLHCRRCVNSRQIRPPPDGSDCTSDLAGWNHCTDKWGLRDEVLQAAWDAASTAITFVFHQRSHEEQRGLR

[11] = DNA binding of candidate compounds, dose response, artefact control for RAD54 inhibitor project, biochemical, fluorescence polarization, cherry-pick (AID 651673); type: functional
[12] = target: T5, Scavenger receptor class B member 1 (Mus musculus, UniProt Q61009); test: inhibitors of SR-BI dependent HDL uptake, dose response, ldlA[mSR-BI] CHO cells, fluorescence plate reader, dry powder, set 9 (AID 623880); type: functional, cell-based
T5 sequence (Q61009 whole entry): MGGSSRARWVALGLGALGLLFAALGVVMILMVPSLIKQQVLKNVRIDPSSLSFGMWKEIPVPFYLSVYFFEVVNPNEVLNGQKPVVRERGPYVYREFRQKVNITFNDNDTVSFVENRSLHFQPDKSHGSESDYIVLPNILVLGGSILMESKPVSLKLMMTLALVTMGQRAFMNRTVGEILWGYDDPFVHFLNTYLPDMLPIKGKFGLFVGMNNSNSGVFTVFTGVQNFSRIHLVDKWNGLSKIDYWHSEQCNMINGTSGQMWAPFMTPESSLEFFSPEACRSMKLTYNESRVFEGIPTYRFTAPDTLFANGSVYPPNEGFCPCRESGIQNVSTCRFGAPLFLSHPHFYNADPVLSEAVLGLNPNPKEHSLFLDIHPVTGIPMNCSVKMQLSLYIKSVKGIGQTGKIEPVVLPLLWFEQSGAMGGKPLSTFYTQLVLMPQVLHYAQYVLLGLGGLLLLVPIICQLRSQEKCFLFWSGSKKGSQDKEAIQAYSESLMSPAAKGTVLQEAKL

[13] = target: T5, Scavenger receptor class B member 1; test: inhibitors of SR-BI-mediated HDL uptake, dose response, cell-based, ldlA[mSR-BI] CHO, DiI fluorescence, dry powder, set 10 (AID 624029); type: functional
[14] = microbe, parasite or virus in culture; type: functional; details: Mycobacterium tuberculosis
[15] = target: T6, Protein disulfide-isomerase (Homo sapiens, UniProt P07237); test: PDI inhibitors, insulin aggregation turbidity, dose response, biochemical, absorbance, cherry-picked samples (AID 602350); type: functional
T6 sequence (P07237 whole entry): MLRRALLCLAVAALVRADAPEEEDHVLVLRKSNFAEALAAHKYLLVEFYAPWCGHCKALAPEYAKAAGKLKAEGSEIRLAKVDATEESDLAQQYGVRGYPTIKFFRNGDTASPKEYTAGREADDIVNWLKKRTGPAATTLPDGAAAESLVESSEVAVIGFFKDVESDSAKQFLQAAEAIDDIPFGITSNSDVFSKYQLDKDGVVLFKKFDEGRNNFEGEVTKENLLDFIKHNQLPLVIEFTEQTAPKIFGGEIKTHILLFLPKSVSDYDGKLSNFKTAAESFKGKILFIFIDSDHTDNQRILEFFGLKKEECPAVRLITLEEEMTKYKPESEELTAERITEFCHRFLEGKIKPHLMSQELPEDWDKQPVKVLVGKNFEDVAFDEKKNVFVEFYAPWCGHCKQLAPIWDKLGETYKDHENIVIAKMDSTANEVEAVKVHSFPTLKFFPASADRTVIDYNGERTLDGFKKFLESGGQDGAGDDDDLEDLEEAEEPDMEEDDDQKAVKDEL

[16] = target: T6, Protein disulfide-isomerase; test: PDI inhibitors, insulin turbidity readout, dose response, biochemical, absorbance, cherry-picked samples, set 2 (AID 624274); type: functional
[17] = target: 5-hydroxytryptamine receptor 2A (Mus musculus, UniProt P35363); type: functional, cell-based;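 note: CHO-K1 cells with tagged receptor and beta-arrestin; agonist potency measured as compound-induced activation of the receptor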
Chain of 5-hydroxytryptamine receptor 2A (P35363 whole entry): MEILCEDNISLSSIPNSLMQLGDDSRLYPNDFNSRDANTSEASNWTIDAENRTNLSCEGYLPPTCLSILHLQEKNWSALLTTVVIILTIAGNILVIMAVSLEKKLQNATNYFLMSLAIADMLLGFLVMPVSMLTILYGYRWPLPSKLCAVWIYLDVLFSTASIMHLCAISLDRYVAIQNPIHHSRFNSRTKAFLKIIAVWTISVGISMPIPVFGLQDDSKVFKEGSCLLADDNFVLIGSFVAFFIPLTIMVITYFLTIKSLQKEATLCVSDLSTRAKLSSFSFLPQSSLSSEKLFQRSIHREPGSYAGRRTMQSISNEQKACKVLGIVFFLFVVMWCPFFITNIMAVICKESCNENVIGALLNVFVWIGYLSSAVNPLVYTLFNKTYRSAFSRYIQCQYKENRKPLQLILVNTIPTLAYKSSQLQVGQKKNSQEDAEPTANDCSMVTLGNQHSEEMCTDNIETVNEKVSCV

Mu-type opioid receptor = Mu-type opioid receptor (Homo sapiens, UniProt P35372); type: functional, cell-based;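 note: U2OS cells with beta-arrestin recruitment to OPRM1 by beta-gal complementation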
Chain of Mu-type opioid receptor (P35372 whole entry): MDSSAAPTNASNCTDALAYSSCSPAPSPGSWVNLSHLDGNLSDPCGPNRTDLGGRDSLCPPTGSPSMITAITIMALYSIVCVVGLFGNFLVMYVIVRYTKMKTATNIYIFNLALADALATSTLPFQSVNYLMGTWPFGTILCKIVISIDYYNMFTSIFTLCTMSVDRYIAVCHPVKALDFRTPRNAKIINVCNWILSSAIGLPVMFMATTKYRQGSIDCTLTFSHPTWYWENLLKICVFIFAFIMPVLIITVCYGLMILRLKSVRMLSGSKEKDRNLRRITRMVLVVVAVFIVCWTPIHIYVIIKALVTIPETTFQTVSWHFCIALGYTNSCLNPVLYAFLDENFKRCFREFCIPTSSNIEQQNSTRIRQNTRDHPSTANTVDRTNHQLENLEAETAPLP

HEK293 = test: inhibitors of LMP1-driven NF-kB reporter, dose response, cell-based, HEK293, luciferase, cherry-pick (AID 588343); type: functional; details: Homo sapiens
Interleukin-8 [18] = target: T7, Interleukin-8 (Homo sapiens, UniProt P10145); test: Dose Response confirmation of uHTS small molecule hits for cystic fibrosis induced NFkb Inhibitors in a PAF-induced IL8 counterscreen.; type: functional; details: read-out: IC50_Mean
T7 sequence (P10145 whole entry): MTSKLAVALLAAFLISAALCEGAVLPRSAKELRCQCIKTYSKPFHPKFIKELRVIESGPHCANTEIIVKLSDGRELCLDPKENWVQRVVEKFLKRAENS

[19] = inhibitors of PGC1a acetylation in cells, dose response, cell-based, cherry-picked samples (AID 720514); type: functional;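 note: potency may reflect raised or lowered acetylation signal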
Interleukin-8 [20] = target: T7, Interleukin-8; test: Dose Response confirmation of uHTS small molecule hits for cystic fibrosis induced NFkb Inhibitors in a TNFa-induced IL8 counterscreen.; type: functional; details: read-out: IC50_Mean
[21] = target: Matrix metalloproteinase-14 (Homo sapiens, UniProt P50281); test: Dose Response confirmation of uHTS hits for a small molecule inhibitors of MT1-MMP activation in a fluorescence assay set 1.; type: functional
[22] = LGR2 antagonists, dose response, cell-based, HEK293, CRE-luciferase reporter, cherry pick, set 2 (AID 743343); type: functional;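 note: transfected cells were stimulated with diluted bursicon conditioned medium after compound addition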
[23] = HepG2 cell cytotoxicity, dose response, cytotoxicity control, plate reader, cherry-pick, antagonist series (AID 743416); type: functional, cell-based
[24] = A549 cell cytotoxicity, dose response, cytotoxicity control, plate reader, cherry-pick, antagonist series (AID 743412); type: functional, cell-based
[25] = MC4R antagonists, dose response, counter-screen for LGR2 antagonist project, cell-based, plate reader, cherry pick (AID 743444); type: functional;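 note: transfected HEK 293 cells stimulated with alpha-MSH peptide; potency of inhibitors of the alpha-MSH evoked signal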
HeLa = test: HeLa cell cytotoxicity, dose response, cytotoxicity control, ATP luminescence, cherry-pick samples (AID 687004); type: functional, cell-based; details: Homo sapiens
[26] = cytotoxicity in HeLa cells, dose response, cytotoxicity control, cell-based, 24 h, dry powder, set 2 (AID 651774); type: functional
[27] = target: T8, Calpain-2 catalytic subunit (Sus scrofa, UniProt P43367); test: pig calpain II inhibitor potency, dose response, biochemical, fluorogenic peptide substrate (AID 1420); type: functional
T8 sequence (P43367 whole entry): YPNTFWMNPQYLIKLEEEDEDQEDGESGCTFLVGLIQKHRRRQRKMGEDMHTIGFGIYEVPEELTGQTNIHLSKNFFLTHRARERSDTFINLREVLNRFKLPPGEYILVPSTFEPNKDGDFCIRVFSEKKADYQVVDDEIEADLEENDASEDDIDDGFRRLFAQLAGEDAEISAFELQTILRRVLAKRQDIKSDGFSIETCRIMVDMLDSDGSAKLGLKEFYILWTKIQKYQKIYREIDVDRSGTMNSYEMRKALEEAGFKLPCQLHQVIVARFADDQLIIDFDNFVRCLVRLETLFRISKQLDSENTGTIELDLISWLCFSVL

[28] = target: Mitochondrial peptide methionine sulfoxide reductase (Bos taurus, UniProt P54149); type: functional;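 note: absorbance read-out, biochemical high-throughput dose-response screen for MsrA inhibitors, confirmatory; recombinant bovine MsrA coupled to E. coli TrxB with NADPH and selenocystamine; potency is for inhibitors of MsrA activity on DMSO substrate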
Chain of Mitochondrial peptide methionine sulfoxide reductase (P54149 whole entry, the tested form may be a part): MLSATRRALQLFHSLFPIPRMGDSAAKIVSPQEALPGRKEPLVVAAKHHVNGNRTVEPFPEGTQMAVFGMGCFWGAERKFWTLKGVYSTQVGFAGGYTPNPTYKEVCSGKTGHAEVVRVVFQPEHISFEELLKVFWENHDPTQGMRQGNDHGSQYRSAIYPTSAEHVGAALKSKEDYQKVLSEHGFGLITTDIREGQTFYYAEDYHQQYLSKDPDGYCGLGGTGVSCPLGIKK

[29] = target: Arf-GAP with SH3 domain, ANK repeat and PH domain-containing protein 1 (Homo sapiens, UniProt Q9ULH1); type: functional;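 note: biochemical fluorescence polarization dose–response screen measuring inhibition of ASAP1; ASAP1 GAP domain stimulating GTP hydrolysis by truncated human ARF1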
Chain of Arf-GAP with SH3 domain, ANK repeat and PH domain-containing protein 1 (Q9ULH1 whole entry, the tested form may be a part): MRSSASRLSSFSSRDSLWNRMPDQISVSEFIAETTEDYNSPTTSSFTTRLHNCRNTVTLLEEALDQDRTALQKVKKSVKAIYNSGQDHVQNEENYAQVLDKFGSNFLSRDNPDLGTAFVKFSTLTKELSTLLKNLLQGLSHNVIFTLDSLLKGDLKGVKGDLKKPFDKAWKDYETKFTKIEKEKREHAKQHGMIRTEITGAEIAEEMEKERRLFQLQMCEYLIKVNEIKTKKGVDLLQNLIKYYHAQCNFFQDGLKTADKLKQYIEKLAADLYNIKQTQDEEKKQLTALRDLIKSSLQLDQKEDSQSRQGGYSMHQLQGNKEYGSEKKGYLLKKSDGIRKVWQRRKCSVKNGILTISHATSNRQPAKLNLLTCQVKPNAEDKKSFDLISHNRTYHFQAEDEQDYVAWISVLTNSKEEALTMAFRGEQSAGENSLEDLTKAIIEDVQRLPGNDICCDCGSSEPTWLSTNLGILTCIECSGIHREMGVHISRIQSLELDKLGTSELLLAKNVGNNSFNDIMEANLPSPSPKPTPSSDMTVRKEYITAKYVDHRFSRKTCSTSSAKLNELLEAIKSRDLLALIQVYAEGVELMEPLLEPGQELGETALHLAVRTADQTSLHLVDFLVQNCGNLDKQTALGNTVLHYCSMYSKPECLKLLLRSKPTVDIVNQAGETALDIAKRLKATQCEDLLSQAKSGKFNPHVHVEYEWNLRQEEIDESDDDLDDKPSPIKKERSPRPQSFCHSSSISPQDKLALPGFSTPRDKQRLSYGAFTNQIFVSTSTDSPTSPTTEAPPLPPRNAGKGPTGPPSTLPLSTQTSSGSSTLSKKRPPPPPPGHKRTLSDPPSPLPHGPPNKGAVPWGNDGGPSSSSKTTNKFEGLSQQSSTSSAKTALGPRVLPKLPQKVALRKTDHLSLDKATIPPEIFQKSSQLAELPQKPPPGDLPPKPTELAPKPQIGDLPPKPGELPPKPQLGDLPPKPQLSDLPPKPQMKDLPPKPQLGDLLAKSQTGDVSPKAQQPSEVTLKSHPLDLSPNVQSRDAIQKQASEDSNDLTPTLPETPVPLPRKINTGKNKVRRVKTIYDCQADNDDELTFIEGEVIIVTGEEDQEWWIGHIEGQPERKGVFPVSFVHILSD

[30] = target: ADP-ribosylation factor GTPase-activating protein 1 (Rattus norvegicus, UniProt Q62848); test: Fluorescence polarization-based biochemical high throughput dose response screening assay to identify inhibitors of ADP-ribosylation factor GTPase activating protein 1 (ARFGAP1).; type: functional
Chain of ADP-ribosylation factor GTPase-activating protein 1 (Q62848 whole entry): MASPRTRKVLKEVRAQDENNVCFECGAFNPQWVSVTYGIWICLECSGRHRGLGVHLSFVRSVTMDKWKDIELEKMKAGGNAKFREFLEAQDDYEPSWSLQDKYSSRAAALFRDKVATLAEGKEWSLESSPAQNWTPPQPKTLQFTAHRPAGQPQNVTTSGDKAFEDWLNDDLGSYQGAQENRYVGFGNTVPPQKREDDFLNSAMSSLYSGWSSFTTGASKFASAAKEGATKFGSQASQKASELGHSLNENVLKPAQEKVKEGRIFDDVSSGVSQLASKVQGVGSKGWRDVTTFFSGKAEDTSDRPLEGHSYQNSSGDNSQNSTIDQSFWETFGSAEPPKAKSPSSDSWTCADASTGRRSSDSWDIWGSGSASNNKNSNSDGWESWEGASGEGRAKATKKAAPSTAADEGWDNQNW

Compound: Cc1nc2ccccc2n1CC(=O)c1ccc(O)c(O)c1
- IC50 [1]: > 96.6 µM (inactive)
- IC50 [2]: 20.2 µM (active)
- IC50 (Albumin): > 94 µM (inactive)

Compound: COC(=O)c1oc2c(c1C)C1(CCC2)SCCS1
- EC50 [3]: > 29.9 µM (inactive)
- IC50 [4]: > 29.9 µM (inactive)
- EC50 [5]: > 29.9 µM (inactive)
- IC50 [6]: 1.09 µM (active)

Compound: Cc1cc(C(C)(C)C)cc(S(=O)(=O)NCCc2ccncc2)c1C
- AC50 [7]: 0.598 µM (active)

Compound: COCCOC(=O)c1c(N)n(Cc2ccco2)c2nc3ccccc3nc12
- AC50 [8]: 130 µM (active)

Compound: CCOC(=O)c1cnc2c(ccc3ccccc32)c1NCCN(C)C
- AC50 [9]: 6.71 µM (active)
- AC50 [10]: 9.73 µM (active)
- AC50 [11]: 55.9 µM (active)

Compound: CCOc1cc2c3c(c1)C1(C(=O)N3C(C)(C)CC2C)C(C#N)=C(N)N2C(=C1C#N)Nc1ccccc12 (centres undefined)
- AC50 [12]: 10 µM (active)
- AC50 [13]: 2.23 µM (active)
- CC50 [14]: > 40 µM (active)

Compound: O=C(Nc1ccccc1N1CCCC1)c1cc(Cl)ccc1Cl
- AC50 [15]: < 0.009 µM (active)
- AC50 [16]: 0.009 µM (active)

Compound: CCC(=O)c1ccc(OCC(O)CN2CCN(c3ccccn3)CC2)cc1 (centres undefined)
- EC50 [17]: 0.306 µM (active)
- EC50 (Mu-type opioid receptor): 92.5 µM (inactive)

Compound: CCCN(CC)c1[nH]cnc2nncc1-2
- AC50 (HEK293): 9.96 µM (active)
- IC50 (Interleukin-8 [18]): 9.12 µM (active)
- AC50 [19]: 3.26 µM (active)
- IC50 (Interleukin-8 [20]): 42.3 µM (inactive)

Compound: Cc1ccc(S(=O)(=O)/N=C2\C=C(NS(=O)(=O)c3ccccc3)C(=O)c3ccccc32)c(C)c1
- IC50 [21]: 14 µM (active)

Compound: Cc1ccc2nc(-c3ccccc3)nn2c1
- AC50 [22]: 2.48 µM (active)
- AC50 [23]: > 52 µM (inactive)
- AC50 [24]: > 52 µM (inactive)
- AC50 [25]: 3.56 µM (active)

Compound: C[C@H](CO)N1C[C@H](C)[C@H](CN(C)Cc2ccccc2)Oc2cc(C#Cc3ccccn3)ccc2S1(=O)=O
- AC50 (HeLa): > 52 µM (inactive)

Compound: c1ccc(-c2ccc(CCNC3CCCC3)cc2)cc1
- AC50 [26]: > 70 µM (inactive)

Compound: CCOC(=O)C/C(C)=N\Nc1ccc([N+](=O)[O-])cc1[N+](=O)[O-]
- IC50 [27]: 23 µM (not active)
- IC50 [28]: 155 µM (inactive)

Compound: COc1cc(/C=N\NC(=O)c2ccc(C)nc2)ccc1OC(=O)c1ccc2c(c1)OCO2
- IC50 [29]: 24.8 µM (inactive)
- IC50 [30]: 21 µM (inactive)
